# Patent US20250313563A1, “GLYCOGEN SYNTHASE KINASE 3 INHIBITORS AND USES THEREOF” (The Broad Institute, Inc., priority 2022, published 2025)
# Read-outs that look alike come from different tables or passages of the source.
# Experiments:
# [1] = molecular target: GSK3α (GST-full length GSK3α) (Homo sapiens (Human), UniProt P49840); experiment: GSK3α TR-FRET kinase assay; assay type: biochemical
# Summary of the method: (§1)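 1 nM GST-GSK3α/β + cpd, 30 min preinc; add 200 nM biotin-pS645 GS(631-650) peptide + ATP (α 4 μM / β 2 μM, or 1 mM); 100 min RT, 50 mM Tris pH 7.5, 20 mM MgCl2, 1% DMSO; EDTA stop; SA-d2/Tb-pSer641 Ab 60 min; 665/615 ratio → IC50.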
# [2] = molecular target: GSK3b (GST-full length GSK3b) (Homo sapiens (Human), UniProt P49841); experiment: GSK3b TR-FRET kinase assay; assay type: biochemical
# Summary of the method: as §1
# [3] = 1 nM GSK3α, 4 μM ATP, 30 minute preincubation, Table 16, read-out: GSK3-A TR-FRET BIOCHEMICAL (TR-FRET), IC50
# [4] = 1 nM GSK3b, 2 μM ATP, 30 minute preincubation, Table 16, read-out: GSK3-B TR-FRET BIOCHEMICAL (TR-FRET), IC50
# [5] = 1 nM GSK3α, 4 μM ATP, 30 minute preincubation, Table 16, read-out: GSK3-A TR-FRET BIOCHEMICAL (TR-FRET)
# [6] = 1 nM GSK3b, 2 μM ATP, 30 minute preincubation, Table 16, read-out: GSK3-B TR-FRET BIOCHEMICAL (TR-FRET)
# [7] = 1 nM GSK3α, 4 μM ATP, 30 minute preincubation, geometric mean, read-out: GSK3-A TR-FRET BIOCHEMICAL (TR-FRET), GMean, IC50
# [8] = 1 nM GSK3b, 2 μM ATP, 30 minute preincubation, geometric mean, read-out: GSK3-B TR-FRET BIOCHEMICAL (TR-FRET), GMean, IC50
# [9] = read-out: GSK3-A (TR-FRET 1 mM ATP), GMean, IC50, 1 mM ATP, geometric mean
# [10] = read-out: GSK3-B (TR-FRET 1 mM ATP), GMean, IC50, 1 mM ATP, geometric mean
# [11] = GSK3-A (TR-FRET 1 mM ATP), GMean, IC50, 1 mM ATP, geometric mean
# [12] = GSK3-B (TR-FRET 1 mM ATP), GMean, IC50, 1 mM ATP, geometric mean
# [13] = 1 nM GSK3α, 4 μM ATP, 30 minute preincubation, read-out: GSK3-A TR-FRET BIOCHEMICAL (TR-FRET), IC50
# [14] = 1 nM GSK3b, 2 μM ATP, 30 minute preincubation, read-out: GSK3-B TR-FRET BIOCHEMICAL (TR-FRET), IC50
# Sequence of GSK3α (GST-full length GSK3α) (P49840 whole entry): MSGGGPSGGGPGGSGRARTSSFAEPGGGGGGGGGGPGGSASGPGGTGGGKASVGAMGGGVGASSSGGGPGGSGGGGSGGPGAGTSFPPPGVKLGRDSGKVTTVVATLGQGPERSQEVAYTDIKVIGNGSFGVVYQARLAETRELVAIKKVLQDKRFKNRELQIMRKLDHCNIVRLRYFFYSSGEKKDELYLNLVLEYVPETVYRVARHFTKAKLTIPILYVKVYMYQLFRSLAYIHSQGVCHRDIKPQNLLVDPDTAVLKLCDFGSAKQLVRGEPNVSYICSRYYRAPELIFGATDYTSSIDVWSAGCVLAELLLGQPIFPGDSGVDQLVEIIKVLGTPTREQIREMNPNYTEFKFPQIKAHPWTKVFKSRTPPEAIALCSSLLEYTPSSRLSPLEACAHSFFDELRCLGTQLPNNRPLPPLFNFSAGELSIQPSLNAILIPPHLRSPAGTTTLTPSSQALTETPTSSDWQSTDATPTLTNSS
# Sequence of GSK3b (GST-full length GSK3b) (P49841 whole entry): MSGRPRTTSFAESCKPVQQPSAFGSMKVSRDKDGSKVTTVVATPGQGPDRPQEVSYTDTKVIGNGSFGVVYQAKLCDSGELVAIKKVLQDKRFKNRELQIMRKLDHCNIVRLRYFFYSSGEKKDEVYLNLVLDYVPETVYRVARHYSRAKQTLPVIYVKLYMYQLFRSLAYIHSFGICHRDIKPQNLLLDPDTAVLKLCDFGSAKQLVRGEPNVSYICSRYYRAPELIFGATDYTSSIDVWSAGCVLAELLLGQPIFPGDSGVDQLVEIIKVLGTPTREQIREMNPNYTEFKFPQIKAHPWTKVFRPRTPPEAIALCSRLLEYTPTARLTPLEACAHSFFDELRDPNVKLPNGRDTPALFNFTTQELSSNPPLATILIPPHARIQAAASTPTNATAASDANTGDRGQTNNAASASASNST
smiles,measurement,setting,value
CC[C@@]1(c2cccc(-c3cnn4ccncc34)c2)C2=C(CC(C)(C)NC2=O)Nc2n[nH]cc21 [Compound 949263],IC50,[1]; [3],> 5000 nM
same,IC50,[2]; [4],> 5000 nM
CCC1(c2cccc(-c3ccnc(N(C)C)c3)c2)C2=C(CC(C)(C)CC2=O)Nc2n[nH]c(C)c21 (centres unmarked) [Compound 883990],IC50,[1]; [3],≤ 100 nM
same,IC50,[2]; [4],100 to 1000 nM
CC1(C)CC(=O)C2=C(C1)Nc1n[nH]cc1[C@]21CCO[C@@H](C(C)(C)C)C1 [Compound 912106],IC50,[1]; [3],100 to 1000 nM
same,IC50,[2]; [4],1000 to 5000 nM
CC[C@@]1(c2cccc(-c3cn(C)nc3C)c2)C2=C(CC(C)(C)CC2=O)Nc2n[nH]cc21 [Compound 945545],IC50,[1]; [5],1000 to 5000 nM
same,IC50,[2]; [6],> 5000 nM
CC(C)(C)Cc1[nH]nc2c1C1(CCc3cccc(F)c31)C1=C(CC(C)(C)CC1=O)N2 (centres unmarked) [Compound 801351],IC50,[1]; [7],> 1670 nM
same,IC50,[2]; [8],100 to 1000 nM
CCC1(c2cccc(C(F)(F)F)c2)C2=C(CC(C)CC2=O)Nc2n[nH]cc21 (centres unmarked) [Compound 810452],IC50,[1]; [7],100 to 1000 nM
same,IC50,[2]; [8],1000 to 5000 nM
CC1(C)CC(=O)C2=C(C1)Nc1n[nH]cc1C21CSC1 [Compound 889567],IC50,[1]; [5],≤ 100 nM
same,IC50,[2]; [6],100 to 1000 nM
CCC1(c2cccc(-c3cnn(C)c3C)c2)C2=C(CC(C)(C)CC2=O)Nc2n[nH]c(C)c21 (centres unmarked) [Compound 883993],IC50,[1]; [3],≤ 100 nM
same,IC50,[2]; [4],≤ 100 nM
CCC1(c2cccc(C3CCC3)c2)C2=C(CC(C)(C)CC2=O)Nc2n[nH]cc21 (centres unmarked) [Compound 949514],IC50,[1]; [3],1000 to 5000 nM
same,IC50,[2]; [4],> 5000 nM
COc1ccccc1S(=O)(=O)N1CC2(C1)C1=C(CC(C)(C)CC1=O)Nc1n[nH]cc12 [Compound 913261],IC50,[1]; [5],≤ 100 nM
same,IC50,[2]; [6],≤ 100 nM
CC1(C)CC(=O)C2=C(C1)Nc1n[nH]cc1C21CN(S(=O)(=O)c2ccccc2)C1 [Compound 901474],IC50,[1]; [5],≤ 100 nM
same,IC50,[2]; [6],≤ 100 nM
Cn1ccc(S(=O)(=O)N2CC3(C2)C2=C(CC(C)(C)CC2=O)Nc2n[nH]cc23)n1 [Compound 913260],IC50,[1]; [5],≤ 100 nM
same,IC50,[2]; [6],≤ 100 nM
CCC1(c2cccc(-c3cnn(C)c3)c2)C2=C(CC(C)(C)NC2=O)Nc2n[nH]c(Cl)c21 (centres unmarked) [Compound 948767],IC50,[1]; [7],≤ 100 nM
same,IC50,[2]; [8],≤ 100 nM
CC[C@]1(c2cccc(-c3cnc(C)n3C)c2)C2=C(CC(C)(C)CC2=O)Nc2n[nH]cc21 [Compound 945612],IC50,[1]; [5],1000 to 5000 nM
same,IC50,[2]; [6],> 5000 nM
CCC1(c2cccc(-c3ccncc3C)c2)C2=C(CC(C)(C)CC2=O)Nc2n[nH]cc21 (centres unmarked) [Compound 943990],IC50,[1]; [5],≤ 100 nM
same,IC50,[1]; [9],≤ 100 nM
same,IC50,[2]; [6],≤ 100 nM
same,IC50,[2]; [10],100 to 1000 nM
CCC1(c2cccc(-c3cc(C)nn3C)c2)C2=C(CC(C)(C)CC2=O)Nc2n[nH]c(C(F)(F)F)c21 (centres unmarked) [Compound 945532],IC50,[1]; [5],≤ 100 nM
same,IC50,[1]; [9],≤ 100 nM
same,IC50,[2]; [6],≤ 100 nM
same,IC50,[2]; [10],100 to 1000 nM
CC[C@]1(c2cccc(S(=O)(=O)C(C)C)c2)C2=C(CC(C)(C)NC2=O)Nc2n[nH]c(C(F)(F)F)c21 [Compound 948419],IC50,[1]; [7],≤ 100 nM
same,IC50,[1]; [9],≤ 100 nM
same,IC50,[2]; [8],≤ 100 nM
same,IC50,[2]; [10],≤ 100 nM
CC[C@@]1(c2cccc(-c3ccncc3)c2)C2=C(CC(C)(C)CC2=O)Nc2n[nH]cc21 [Compound 801412],IC50,[1]; [7],> 5000 nM
same,IC50,[2]; [8],> 5000 nM
CC1(C)CC(=O)C2=C(C1)Nc1n[nH]cc1[C@]21CCCc2c(-c3ccncc3)cccc21 [Compound 945548],IC50,[1]; [5],≤ 100 nM
same,IC50,[2]; [6],≤ 100 nM
CC1(C)CC(=O)C2=C(C1)Nc1n[nH]cc1C21CCN(S(=O)(=O)c2cccnc2)CC1 [Compound 947613],IC50,[1]; [5],≤ 100 nM
same,IC50,[1]; [11],100 to 1000 nM
same,IC50,[2]; [6],≤ 100 nM
same,IC50,[2]; [12],1000 to 5000 nM
CCC1(c2cccc(-c3cn(C)nc3C)c2)C2=C(CC(C)(C)NC2=O)Nc2n[nH]c(F)c21 (centres unmarked) [Compound 948301],IC50,[1]; [7],≤ 100 nM
same,IC50,[2]; [8],≤ 100 nM
CC[C@]1(c2cccc(-c3ccncc3F)c2)C2=C(CC(C)(C)NC2=O)Nc2n[nH]c(F)c21 [Compound 949643],IC50,[1]; [3],> 5000 nM
same,IC50,[2]; [4],> 5000 nM
CCC1(c2cccc(-c3cnn(C4CC4)c3)c2)C2=C(CC(C)(C)CC2=O)Nc2n[nH]cc21 (centres unmarked) [Compound 913028],IC50,[1]; [3],≤ 100 nM
same,IC50,[2]; [4],≤ 100 nM
CCC1(c2cccc(-c3ccnc(C)c3)c2)C2=C(CC(C)(C)NC2=O)Nc2n[nH]c(C)c21 (centres unmarked) [Compound 948414],IC50,[1]; [7],> 5000 nM
same,IC50,[2]; [8],> 5000 nM
CCC1(c2cccc(-c3ccncc3C)c2)C2=C(CC(C)(C)CC2=O)Nc2n[nH]c(C)c21 (centres unmarked) [Compound 883991],IC50,[1]; [3],≤ 100 nM
same,IC50,[2]; [4],≤ 100 nM
CC[C@@]1(c2ccccc2)C2=C(C[C@](C)(COC)CC2=O)Nc2n[nH]cc21 [Compound 816874],IC50,[1]; [7],> 5000 nM
same,IC50,[2]; [8],> 5000 nM
CCC1(c2cccc(OC(C)C)c2)C2=C(CC(C)(C)CC2=O)Nc2[nH]nc(C(F)(F)F)c21 (centres unmarked) [Compound 947867],IC50,[1]; [5],≤ 100 nM
same,IC50,[1]; [9],≤ 100 nM
same,IC50,[2]; [6],≤ 100 nM
same,IC50,[2]; [10],≤ 100 nM
CC[C@]1(c2cccc(C(F)(F)F)c2)C2=C(CCN(C(C)(C)C)C2=O)Nc2n[nH]cc21 [Compound 945634],IC50,[1]; [13],1000 to 5000 nM
same,IC50,[2]; [14],> 5000 nM
CCC1(c2cccc(-c3ccnc(C(F)(F)F)c3)c2)C2=C(CC(C)(C)CC2=O)Nc2n[nH]c(C)c21 (centres unmarked) [Compound 913049],IC50,[1]; [3],100 to 1000 nM
same,IC50,[2]; [4],> 5000 nM
CCC1(c2cccc(N(C)c3ccnc(C)c3)c2)C2=C(CC(C)(C)CC2=O)Nc2n[nH]cc21 (centres unmarked) [Compound 932645],IC50,[1]; [3],100 to 1000 nM
same,IC50,[2]; [4],1000 to 5000 nM
CC1(C)CC(=O)C2=C(C1)Nc1n[nH]cc1[C@@]21CCO[C@H](C(C)(C)C)C1 [Compound 912107],IC50,[1]; [3],> 5000 nM
same,IC50,[2]; [4],> 5000 nM
CCC1(c2cccc(C(F)(F)F)c2)C2=C(CCN(c3cccnc3)C2=O)Nc2n[nH]cc21 (centres unmarked) [Compound 945637],IC50,[1]; [13],≤ 100 nM
same,IC50,[2]; [14],100 to 1000 nM
CCN(c1cccc(C2(CC)C3=C(CC(C)(C)CC3=O)Nc3n[nH]cc32)c1)c1ncccn1 (centres unmarked) [Compound 947333],IC50,[1]; [5],≤ 100 nM
same,IC50,[1]; [9],≤ 100 nM
same,IC50,[2]; [6],≤ 100 nM
same,IC50,[2]; [10],100 to 1000 nM
CCC1(c2cccc(-c3cn[nH]c3)c2)C2=C(CC(C)(C)NC2=O)Nc2n[nH]cc21 (centres unmarked) [Compound 944022],IC50,[1]; [13],≤ 100 nM
same,IC50,[2]; [14],100 to 1000 nM
CC[C@]1(c2cccc(-c3ccncc3C)c2)C2=C(C[C@@]3(CCCOC3)NC2=O)Nc2n[nH]cc21 [Compound 947910],IC50,[1]; [7],≤ 100 nM
same,IC50,[2]; [8],≤ 100 nM
CC[C@@]1(c2ccccc2)C2=C(C[C@]3(CCOC3)CC2=O)Nc2n[nH]cc21 [Compound 816882],IC50,[1]; [7],> 5000 nM
same,IC50,[2]; [8],> 5000 nM
C[C@@H]1CC(=O)C2=C(C1)Nc1n[nH]cc1[C@]2(C)c1ccccc1 [Compound 789331],IC50,[1]; [7],> 5000 nM
same,IC50,[2]; [8],> 5000 nM
CC1(C)CC(=O)C2=C(C1)Nc1n[nH]cc1C21CCN(S(=O)(=O)c2ccc(OC(F)F)cc2)CC1 [Compound 947246],IC50,[1]; [5],≤ 100 nM
same,IC50,[1]; [11],≤ 100 nM
same,IC50,[2]; [6],≤ 100 nM
same,IC50,[2]; [12],100 to 1000 nM
CC1(C)CC(=O)C2=C(C1)Nc1n[nH]cc1[C@]21C[C@@H](c2ccncc2)C1 [Compound 889665],IC50,[1]; [5],≤ 100 nM
same,IC50,[1]; [11],≤ 100 nM
same,IC50,[2]; [6],≤ 100 nM
same,IC50,[2]; [12],100 to 1000 nM
CCC1(c2cccc(N(C)C3CC3)c2)C2=C(CC(C)(C)CC2=O)Nc2n[nH]cc21 (centres unmarked) [Compound 945466],IC50,[1]; [5],100 to 1000 nM
same,IC50,[2]; [6],1000 to 5000 nM
CC1(C)CC(=O)C2=C(C1)Nc1n[nH]cc1C21CN(c2ccncc2)C1 [Compound 912077],IC50,[1]; [3],> 5000 nM
same,IC50,[2]; [4],> 5000 nM
